The values below come from a melting point compilation (Tetko et al.; mined from patent text by program, amines drawn as free bases though some values may be those of a salt).

On to `Cc1ncc(CN2CCC(COCc3ccccc3)CC2)c(N)n1`, for which the melting point fell in the range of 106 to 108 °C.
Next, `CC1(c2ccc(COc3ncc(Br)s3)cc2)OCCO1`: 129 to 131 °C; `Cc1cc(CCCOc2ccc(-c3noc(C(F)(F)F)n3)cc2)on1`: 68 to 69 °C.
Next, `COc1cccc2oc(-c3ccc(Cl)cc3)cc(=O)c12`: 171 to 172 °C; `Cc1cccc(NC(=O)NC2N=C(c3ccccc3F)c3ccccc3N(Cc3nccc4ccccc34)C2=O)c1` (racemic): 145 to 147 °C.
The value for `CN1C(=O)C(C(=N)c2ccccc2)=C(O)CC1c1ccccc1` (stereo not given) was 117 to 120 °C.
Turning to `COCCN1CCc2cc(Nc3ncc(Cl)c(Nc4ccccc4S(=O)(=O)N(C)C)n3)c(OC)cc2CC1`, the melting point lay within 54 to 64 °C.
Next, `C[C@@]1(C(=O)O)CSC(Cc2cc(F)cc(F)c2)=N1`: 120 to 122 °C.
`O=C1OCCCC1=Cc1ccccc1OCC(O)CN1CCC(c2ccc3ccccc3c2)CC1` (stereo not given) came in with a melting point of 142 to 144 °C.
Next, `CCn1nc(OCCCc2ccc(OCCOC)cc2Oc2ncc(C(F)(F)F)cc2Cl)cc1CCC(=O)O`: 101 to 103 °C; `CCCCc1nc2c(N)nc3ccccc3c2n1CCCCSC`: 127 to 130 °C; `CCCn1nc2c(N)nc3ccccc3c2c1CCNC(=O)C1CC1`: 215 to 217 °C.
The value for `O=C(O)CCCNC1=NS(=O)(=O)c2ccccc21` was 200 to 202 °C; that for `O=C(CSc1cccc(Br)c1)c1ccc2[nH]c3ncc(Cl)cc3c2c1` was 229 to 230 °C; that for `CCOC(=O)COc1ccc(C(=O)CN2CCN(c3ccncc3)CC2)cc1` was 41 to 42 °C.
Next, `CCOC(=O)/C=C/c1ccc(OCCCOCCOC)cc1Oc1ncc(C(F)(F)F)cc1Cl`: 65 to 67 °C.
Turning to `CCNC(=O)Nc1c(C(=O)c2ccccc2)[nH]c2cc(Cl)ccc12`, the melting point is 222 to 235 °C.
Next, `CC1(C)C(=O)NC(=O)c2c1ccc1nc(Nc3c(Cl)cccc3Cl)[nH]c21`: 290 to 292 °C; `CSc1nc(N2CCc3ccccc3CC2)c(C#N)c2nncn12`: more than 200 °C.
Next, `COc1ccc2c(C)nc(=O)[nH]c2c1`: 251 to 254 °C.
Next, `NNC(=O)c1ccccc1OCC(F)(F)F`: 102 to 104 °C.
The compound `CN(C)C(=O)C1=C(C(=O)Nc2ccc(Br)cc2F)CCCC1` had a melting point of 83 to 85 °C.
Next, `CC(=O)NCCCC(=O)c1ccccc1`: 92 to 95 °C.
The value for `Cn1nc(NC2c3cc(C#N)ccc3OC(C)(C)C2O)ccc1=O` (stereo not given) was 117 to 119 °C.
`N#Cc1ccc2c(c1)CCC2=O` showed a melting point of 123 to 125 °C.
Compound `CCSC(C)(C)C(=O)CC(=O)Nc1cc(NC(=O)CCCOc2ccc(C(C)(C)CC)cc2C(C)(C)CC)ccc1OC` showed a melting point of 57 to 60 °C.
The value for `CCOC(=O)c1csc(N2CCOC2=O)n1` was 157 to 159 °C.
Regarding `Cc1ccc(C(O)C2C(c3ccccc3)CC(=O)N2C)s1` (stereo not given), the melting point lay in the range of 185 to 188 °C.
Take `CC(C)[C@H](NC(=O)OC(C)(C)C)C(=O)N[C@H](CCC(=O)OCc1ccccc1)C(N)=O`: the melting point is 149 to 151 °C.
Next, `CCCCCCCCCCCC(=O)Oc1c(C(=O)c2ccc(Cl)cc2Cl)c(C)nn1C`: 56 °C.
Next, `CCc1c(N)c(C(N)=O)nn1CC1CC1`: 143 to 145 °C; `COCc1ccc(C[C@@H]2O[C@H](COC(C)=O)[C@@H](OC(C)=O)[C@H](OC(C)=O)[C@H]2OC(C)=O)cc1`: 120 to 122 °C.
Compound `CCCn1nc2c(N)nc3ccccc3c2c1CCNS(C)(=O)=O` had a melting point of 187 to 188 °C.
The value for `Cn1cnnc1C(N)(c1ccc(Cl)cc1)c1ccc2c(c1)c(-c1cccc(Cl)c1)cc(=O)n2C` (stereo not given) was 210 °C.
Next, `CCOC(=O)c1cc(COc2cc3ncnc(Nc4ccc(Cl)cc4F)c3cc2OC)ccn1`: 212 to 214 °C.
